Laboratory results reported in patent EP2435019B1, “DODECA-2E,4E-DIENE AMIDES AND THEIR USE AS MEDICAMENTS AND COSMETICS” (Dr. August Wolff GmbH & Co. KG Arzneimittel, priority 2009, dated 2010).

Columns and labels:
[3H]-AEA uptake = Cellular uptake of [3H]-AEA in human primary monocytes (assay C); assay type: cell-based; conditions: Figure 1(a), 1 µM
Procedure: • Figure 1: AEA re-uptake inhibition of 2E,4E-dieneamides 1 and 9 into human primary monocytes and U937 cells. […] Data are mean values ± SEM of 3 independent experiments in a sigmoidal dose-response curve. • Figure 2: Concentration-dependent effects of 4 and 5 on FAAH activity. […] The maximal inhibition (32%) of 5 was measured at 1 µM. Data are mean values ± SEM of 3 independent experiments. • Figure 3: Effects of low nM concentrations of N-alkylamide 7 on FAAH activity alone and in combination with the FAAH inhibitor URB597. […] Data are mean values ± SEM of 3 independent experiments. • Figure 4: 1 and 9 inhibit LPS-induced TNF-alpha release into culture medium (measured by ELISA). Human macrophages (10^6 cells) were stimulated with LPS (500 ng/ml) and treated with UCM707 and/or compounds 1 and 9 at 5 µM for 18 h. N = 3 ± SEM. • Figure 5: UCM707 (positive control) and compounds 1 and 9 diminish NO2^- production. Human macrophages (10^6 cells) were stimulated with LPS (500 ng/ml) and treated with UCM707 and/or compounds 1 and 9 at 5 µM for 18 h. Culture supernatants were assayed for nitrite levels, using the Griess reagent as a reflection of NO production. […]
Human lymphoma U937 cells were grown in RPMI 1640 medium (Invitrogen, Basel, Switzerland) supplemented with 10% fetal bovine serum, […] fungizone (amphotericin B), 100 units/ml penicillin, 100 µg/ml streptomycin, and 2 mM L-glutamine (all from Invitrogen) and selected for the cellular AEA uptake assay. […] The filters-bound radioactivity was measured using a Beckman LS6500 scintillation counter. Results were expressed as % of AEA uptake versus cells treated with solvent and the EC50 and IC50 values were calculated from the sigmoidal curves, which were generated using the GraphPad Prism (GraphPad Software, San Diego, CA, US).

[1] = target: T1, human recombinant Fatty acid amide hydrolase (Homo sapiens, UniProt O00519); assay: Inhibition of human recombinant FAAH, fluorometric method (assay G); assay type: biochemical; conditions: human recombinant enzyme, AMC-anandamide substrate (assay G)
T1 sequence (O00519 1-579): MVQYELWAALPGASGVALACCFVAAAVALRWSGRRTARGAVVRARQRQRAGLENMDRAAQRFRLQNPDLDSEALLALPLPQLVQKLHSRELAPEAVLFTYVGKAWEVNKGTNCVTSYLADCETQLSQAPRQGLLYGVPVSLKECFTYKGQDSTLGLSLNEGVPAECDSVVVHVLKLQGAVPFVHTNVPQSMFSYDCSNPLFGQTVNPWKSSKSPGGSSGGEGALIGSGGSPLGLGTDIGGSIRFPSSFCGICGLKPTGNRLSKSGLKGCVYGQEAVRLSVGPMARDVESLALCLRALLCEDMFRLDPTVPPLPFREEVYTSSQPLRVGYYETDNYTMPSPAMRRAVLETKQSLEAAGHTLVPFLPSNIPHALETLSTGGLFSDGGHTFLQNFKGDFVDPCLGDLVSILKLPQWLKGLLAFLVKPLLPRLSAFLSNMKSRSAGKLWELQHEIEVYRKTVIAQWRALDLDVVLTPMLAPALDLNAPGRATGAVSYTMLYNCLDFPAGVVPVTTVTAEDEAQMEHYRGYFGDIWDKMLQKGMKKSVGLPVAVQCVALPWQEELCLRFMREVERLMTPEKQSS
Procedure: FAAH activity is measured using the modified method described by Omeir et al., Arachidonoyl ethanolamide-[1,2-14C] as a substrate for anandamide amidase. Life Sci. 1995;56(23-24):1999-2005. Human recombinant enzyme is preincubated with reference compound (methylarachidonlyfluorophosphonate, MAFP) and test compounds for 30 min at room temperature in 50 mM Tris containing 1 mM EDTA and 0.1% fatty acid free BSA (pH 8.0). Substrate (7-amino-4-methyl coumarin-arachidonamide, AMC-anandamide) is then added and incubated for 30 min at room temperature. The reaction is stopped by the addition of 2.5 µl of 10 µM URB597. Released 7-amino-4-methyl coumarin (AMC) is detected by fluorometry in order to ascertain any interactions of test compounds with the FAAH enzyme.

CCCCCCC/C=C/C=C/C(=O)NCCc1cccc(OC)c1 [Example 9, (2E,4E)-N-(3-methoxyphenethyl)dodeca-2,4-diene amide]
[3H]-AEA uptake inhibition ([3H]-AEA uptake): potently inhibited | FAAH inhibition at 1 µM [1]: 16 % of control

CCCCCCC/C=C/C=C/C(=O)NCCO [Example 1, (2E,4E)-N-(2-hydroxyethyl)dodeca-2,4-diene amide]
[3H]-AEA uptake inhibition ([3H]-AEA uptake): potently inhibited | FAAH inhibition at 1 µM [1]: 9 % of control
